IC50 and EC50 data for nine molecules are collected here from paper doi:10.1101/620765v2 (biorxiv, 2019).

Where two headings read alike, the source gives them in different places.

Experiment [1] deals with T1, human αVβ3 expressed in HEK-293 cells (HEK-αVβ3) (Homo sapiens, UniProt P05106+P06756). Briefly: inhibition of HEK-αVβ[…] cell adhesion to immobilized fibrinogen. It counts as cell-based.
Experiment [2] deals with T1, human αVβ3 expressed in HEK-293 cells (HEK-αVβ3). Briefly: exposure of mAb AP5. It counts as cell-based.
Experiment [3] has as its target T2, purified αVβ5 (R&D Systems) (Homo sapiens, UniProt P06756+P18084). Briefly: inhibition of binding of purified αVβ[…] to immobilized vitronectin, plate assay.
In experiment [4] the target is purified human αVβ3 (R&D Systems) (Homo sapiens, UniProt P05106+P06756). Briefly: biochemical.
Experiment [5] addresses T1, human αVβ3 expressed in HEK-293 cells (HEK-αVβ3). Briefly: cell-based. The arrangement: species or system HEK-293 expressing human αVβ3.
Experiment [6] shares this target. Briefly: inhibition of HEK-αVβ[…] cell adhesion to fibronectin. The class given is cell-based.
Experiment [7] concerns the target T2, purified αVβ5 (R&D Systems). Particulars: read-out: IC50 (μM) purified αVβ5 binding to vitronectin; antagonist.

Consider `O=C(CCCCc1ccc2c(n1)NCCC2)NCC[C@H](Nc1nc2ccccc2o1)C(=O)O` [TDI-4160], for which the half-maximal inhibitory concentration (IC50) – broadly, the concentration that inhibits the measured activity by half – in experiment [1] (1 mM Mg2+, 2 mM Ca2+, pH 7.4, room temperature) came to 185 ± 42 nM. Further, in experiment [2], the EC50 (commonly the midpoint of the concentration-response curve) is over 10000 nM.

With `O=C(O)CCNC(=O)CCCCc1ccc2c(n1)NCCC2` [C, TDI-1367], the IC50 in experiment [1] turned out to be 756 ± 607 nM. The same molecule returned an EC50 in experiment [2] of over 10000 nM.

In experiment [1], `O=C(CCCCc1ccc2c(n1)NCCC2)NCCC(NC(=O)c1nc2ccccc2s1)C(=O)O` (racemic) [F, TDI-3909] had an IC50 of 49 ± 16 nM.

`O=C(CCCCc1ccc2c(n1)NCCC2)NCCC(Nc1nc2ccccc2o1)C(=O)O` (racemic) [E, TDI-3761]: the IC50 was determined as 875 ± 348 nM in experiment [3], 0.049 ± 0.05 µM in experiment [4], 172 ± 66 nM in experiment [5] and 79 ± 10 nM in experiment [6].

As for `O=C(CCCCc1ccc2c(n1)NCCC2)NCC[C@H](NC(=O)c1nc2ccccc2s1)C(=O)O` [G, TDI-4161], the IC50 in experiment [3] was found to be 689 ± 374 nM; in experiment [4], 0.012 ± 0.005 µM; in experiment [6], 42 ± 21 nM.

For the molecule `O=C(O)CCCNC(=O)CCCCc1ccc2c(n1)NCCC2` [D, TDI-2668], it took 1020 nM to reach half-maximal inhibition in experiment [1] (IC50). The EC50 in experiment [2] is over 10000 nM.

For the molecule `COc1ccc(C(CC(=O)O)N2CCN(CCCc3ccc4c(n3)NCCC4)C2=O)cn1` (racemic) [MK-429 racemate], the IC50 stood at 0.035 ± 0.019 µM in experiment [7] and 0.011 ± 0.005 µM in experiment [4] (read-out: IC50 (μM) purified αVβ3 binding to penton base, antagonist).

On to `COc1ccc(C(CC(=O)O)N2CCN(CCCc3ccc4c(n3)NCCC4)C2=O)cn1` (racemic) [A, TDI-806], for which, in experiment [1], it took 3 nM to reach half-maximal inhibition (IC50). For the same molecule, the EC50 in experiment [2] was 12 nM.

In the case of `O=C(CCCCc1ccc2c(n1)NCCC2)NCC[C@@H](Nc1nc2ccccc2o1)C(=O)O` [TDI-4158], it took 123 ± 55 nM to reach half-maximal inhibition in experiment [1] (IC50). In experiment [2], this molecule returned an EC50 of over 10000 nM.
